In PubChem BioAssay (NCI):
Converted amounts (≈) assume the structure as drawn.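 1) Cells in 96-well plates. 2) Compound, 48 h, 5 concentrations. 3) Linear interpolation between surrounding doses. 4) Unreached endpoint = highest concentration. GI50 = concentration required for 50% inhibition of growth. TGI is the concentration that stops growth completely.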

Assays:
Test in all cases: DTP human tumour cell line panel, 48 h
M14 melanoma = system: M14 melanoma
SNB-75 CNS = system: SNB-75 CNS
PC-3 prostate = system: PC-3 prostate
OVCAR-5 ovarian = system: OVCAR-5 ovarian
DU-145 prostate = system: DU-145 prostate
RPMI-8226 leukemia = system: RPMI-8226 leukemia
COLO 205 colon = system: COLO 205 colon
EKVX NSCLC = system: EKVX NSCLC
NCI-H460 lung = system: NCI-H460 lung
MOLT-4 leukemia = system: MOLT-4 leukemia

SMILES: CC(C)C(Sc1nc(N)nc2nc[nH]c12)C(=O)O (configuration not stated)
- TGI (M14 melanoma): > 100 µM
- TGI (SNB-75 CNS): > 100 µM
- TGI (PC-3 prostate): > 100 µM
- TGI (OVCAR-5 ovarian): > 100 µM
- TGI (DU-145 prostate): > 100 µM
- TGI (RPMI-8226 leukemia): > 100 µM
- TGI (COLO 205 colon): > 100 µM
- TGI (EKVX NSCLC): > 100 µM
- TGI (NCI-H460 lung): > 100 µM

SMILES: O=C(OC1C#CCSCC#C/C=C\1)c1ccc2c(c1)C(=O)c1ccccc1C2=O (configuration not stated)
- TGI (M14 melanoma): > 100 µM
- TGI (SNB-75 CNS): > 100 µM
- TGI (PC-3 prostate): > 100 µM
- TGI (OVCAR-5 ovarian): > 100 µM
- TGI (DU-145 prostate): > 100 µM
- TGI (RPMI-8226 leukemia): > 100 µM
- TGI (COLO 205 colon): > 100 µM
- TGI (EKVX NSCLC): > 100 µM
- TGI (MOLT-4 leukemia): > 100 µM
- TGI (NCI-H460 lung): > 100 µM

SMILES: O=C(O)c1ccccc1Sc1ccc(C=C2NC(=S)N(c3ccccc3)C2=O)s1
- TGI (SNB-75 CNS): > 100 µM
- TGI (PC-3 prostate): > 100 µM
- TGI (OVCAR-5 ovarian): > 100 µM
- TGI (DU-145 prostate): > 100 µM
- TGI (RPMI-8226 leukemia): > 100 µM
- TGI (COLO 205 colon): > 100 µM
- TGI (EKVX NSCLC): > 100 µM
- TGI (MOLT-4 leukemia): > 100 µM
- TGI (NCI-H460 lung): > 100 µM

SMILES: c1ccc(-c2cc(-c3ccccc3)nc(-c3ccncc3)c2)cc1
- TGI (M14 melanoma): > 100 µM
- TGI (PC-3 prostate): > 100 µM
- TGI (OVCAR-5 ovarian): > 100 µM
- TGI (DU-145 prostate): > 100 µM
- TGI (RPMI-8226 leukemia): > 100 µM
- TGI (COLO 205 colon): > 100 µM
- TGI (EKVX NSCLC): > 100 µM
- TGI (MOLT-4 leukemia): > 100 µM

SMILES: O=C1OCc2nc3c(c(-c4ccccc4C(F)(F)F)c21)C(=O)OC3
- TGI (M14 melanoma): > 100 µM
- TGI (OVCAR-5 ovarian): > 100 µM
- TGI (RPMI-8226 leukemia): > 100 µM
- TGI (COLO 205 colon): > 100 µM
- TGI (EKVX NSCLC): > 100 µM
- TGI (MOLT-4 leukemia): > 100 µM
- TGI (NCI-H460 lung): > 100 µM

SMILES: O=[N+]([O-])c1ccc(N=P(c2ccccc2)(c2ccccc2)c2ccccc2)n2nnnc12
- TGI (M14 melanoma): > 100 µM
- TGI (SNB-75 CNS): 42.6 µM
- TGI (OVCAR-5 ovarian): > 100 µM
- TGI (RPMI-8226 leukemia): > 100 µM
- TGI (COLO 205 colon): > 100 µM
- TGI (EKVX NSCLC): > 100 µM
- TGI (MOLT-4 leukemia): > 100 µM
- TGI (NCI-H460 lung): > 100 µM

SMILES: COc1ccc2nc(-c3ccc(N)cc3)sc2c1
- TGI (M14 melanoma): > 100 µM
- TGI (SNB-75 CNS): > 100 µM
- TGI (PC-3 prostate): > 100 µM
- TGI (OVCAR-5 ovarian): > 100 µM
- TGI (COLO 205 colon): > 100 µM
- TGI (EKVX NSCLC): > 100 µM
- TGI (MOLT-4 leukemia): > 100 µM
- TGI (NCI-H460 lung): > 100 µM

SMILES: O=[N+]([O-])c1ccc(CSC2=C(c3ccc(Cl)cc3)S/C(=C3\SC(SCc4ccc([N+](=O)[O-])cc4)=C(c4ccc(Cl)cc4)S3)S2)cc1
- TGI (M14 melanoma): > 100 µM
- TGI (PC-3 prostate): > 100 µM
- TGI (OVCAR-5 ovarian): > 100 µM
- TGI (DU-145 prostate): > 100 µM
- TGI (COLO 205 colon): > 100 µM
- TGI (EKVX NSCLC): > 100 µM
- TGI (MOLT-4 leukemia): > 100 µM
- TGI (NCI-H460 lung): > 100 µM

SMILES: CC[C@@]1(O)C(=O)OCc2c1cc1n(c2=O)Cc2c-1nc1ccc(N)cc1c2CC[Si](C)(C)C
- TGI (M14 melanoma): < 0.0499 µM
- TGI (PC-3 prostate): 13.7 µM
- TGI (OVCAR-5 ovarian): 1 µM
- TGI (DU-145 prostate): 1.68 µM
- TGI (RPMI-8226 leukemia): 0.0841 µM
- TGI (COLO 205 colon): 0.197 µM
- TGI (EKVX NSCLC): 3.23 µM
- TGI (MOLT-4 leukemia): < 0.01 µM
- TGI (NCI-H460 lung): < 0.013 µM

SMILES: Cc1csc(NCc2ccc(Cl)cc2)n1
- TGI (M14 melanoma): > 100 µM
- TGI (SNB-75 CNS): > 100 µM
- TGI (PC-3 prostate): > 100 µM
- TGI (OVCAR-5 ovarian): > 100 µM
- TGI (DU-145 prostate): > 100 µM
- TGI (RPMI-8226 leukemia): > 100 µM
- TGI (COLO 205 colon): 63.1 µM
- TGI (EKVX NSCLC): > 100 µM
- TGI (MOLT-4 leukemia): > 100 µM

SMILES: CN(CCNC(=O)c1nn(C)c2c1Cc1ccccc1-2)CCNC(=O)c1nn(C)c2c1Cc1ccccc1-2
- TGI (M14 melanoma): 26.5 µM
- TGI (SNB-75 CNS): 28.4 µM
- TGI (PC-3 prostate): 47.6 µM
- TGI (OVCAR-5 ovarian): 89 µM
- TGI (DU-145 prostate): 41.5 µM
- TGI (COLO 205 colon): 24.8 µM
- TGI (EKVX NSCLC): 72.8 µM
- TGI (MOLT-4 leukemia): 31.2 µM
- TGI (NCI-H460 lung): 31.7 µM

SMILES: O=C1CC2(CCN(Cc3ccccc3)CC2)C(=O)N1N1CCCCC1
- TGI (M14 melanoma): > 100 µM
- TGI (SNB-75 CNS): > 100 µM
- TGI (PC-3 prostate): > 100 µM
- TGI (OVCAR-5 ovarian): > 100 µM
- TGI (DU-145 prostate): > 100 µM
- TGI (RPMI-8226 leukemia): > 100 µM
- TGI (COLO 205 colon): > 100 µM
- TGI (MOLT-4 leukemia): > 100 µM
- TGI (NCI-H460 lung): > 100 µM

SMILES: Cc1nc2nnc(CCCCCCCCc3nnc4nc(C)[nH]n34)n2[nH]1
- TGI (M14 melanoma): > 100 µM
- TGI (SNB-75 CNS): > 100 µM
- TGI (PC-3 prostate): > 100 µM
- TGI (OVCAR-5 ovarian): > 100 µM
- TGI (DU-145 prostate): > 100 µM
- TGI (COLO 205 colon): > 100 µM
- TGI (EKVX NSCLC): > 100 µM
- TGI (MOLT-4 leukemia): > 100 µM
- TGI (NCI-H460 lung): > 100 µM

SMILES: CC/C(CC(=O)CCC(=O)Nc1ccc(C)c(C)c1)=N\NC(=O)c1cc2ccccc2cc1O
- TGI (M14 melanoma): 42.5 µM
- TGI (OVCAR-5 ovarian): > 100 µM
- TGI (COLO 205 colon): > 100 µM
- TGI (EKVX NSCLC): 88.3 µM
- TGI (MOLT-4 leukemia): > 100 µM
- TGI (NCI-H460 lung): > 100 µM

SMILES: COc1cc2c(c(O)c1OC)C(O)C1CCC(=O)N1C2c1ccc2c(c1)OCO2 (configuration not stated)
- TGI (M14 melanoma): > 100 µM
- TGI (SNB-75 CNS): > 100 µM
- TGI (PC-3 prostate): > 100 µM
- TGI (OVCAR-5 ovarian): > 100 µM
- TGI (DU-145 prostate): > 100 µM
- TGI (COLO 205 colon): > 100 µM
- TGI (EKVX NSCLC): > 100 µM
- TGI (MOLT-4 leukemia): > 100 µM
- TGI (NCI-H460 lung): > 100 µM

SMILES: Cc1c2ccncc2c(C)c2c1[nH]c1ccc(O)cc12
- GI50 (SNB-75 CNS): 22600 µM
- GI50 (OVCAR-5 ovarian): 0.239 µg/mL (≈ 0.909 µM)
- TGI (OVCAR-5 ovarian): 0.831 µg/mL
- GI50 (RPMI-8226 leukemia): 0.0217 µg/mL (≈ 0.0826 µM)
- TGI (RPMI-8226 leukemia): 0.129 µg/mL
- GI50 (COLO 205 colon): 0.0699 µg/mL (≈ 0.267 µM)
- TGI (COLO 205 colon): 0.455 µg/mL
- GI50 (EKVX NSCLC): 0.0921 µg/mL (≈ 0.351 µM)
- TGI (EKVX NSCLC): 0.273 µg/mL
- TGI (MOLT-4 leukemia): 0.0671 µg/mL
- GI50 (NCI-H460 lung): 0.0157 µg/mL (≈ 0.0598 µM)
- TGI (NCI-H460 lung): 0.0467 µg/mL

SMILES: CCn1c(=O)c2nc(SC)sc2n(-c2ccccc2)c1=S
- TGI (M14 melanoma): > 100 µM
- TGI (SNB-75 CNS): > 100 µM
- TGI (PC-3 prostate): > 100 µM
- TGI (OVCAR-5 ovarian): > 100 µM
- TGI (DU-145 prostate): > 100 µM
- TGI (RPMI-8226 leukemia): > 100 µM
- TGI (EKVX NSCLC): > 100 µM
- TGI (MOLT-4 leukemia): > 100 µM
- TGI (NCI-H460 lung): > 100 µM

SMILES: CC(=O)N(C(=O)CC(=O)N1N=C(C)C(N=Nc2cccc([N+](=O)[O-])c2)C1=O)c1ccc(Cl)cc1 (configuration not stated)
- TGI (M14 melanoma): > 10 µM
- TGI (SNB-75 CNS): > 10 µM
- TGI (PC-3 prostate): > 10 µM
- TGI (OVCAR-5 ovarian): > 10 µM
- TGI (DU-145 prostate): > 10 µM
- TGI (RPMI-8226 leukemia): > 10 µM
- TGI (COLO 205 colon): > 10 µM

SMILES: O=C(O)COc1c(Cl)cc(Cl)c(C(c2c(Cl)cc(Cl)c(OCC(=O)O)c2Cl)C(Cl)(Cl)Cl)c1Cl
- TGI (M14 melanoma): 46.8 µM
- TGI (SNB-75 CNS): 93.5 µM
- TGI (PC-3 prostate): > 100 µM
- TGI (OVCAR-5 ovarian): 67.6 µM
- TGI (DU-145 prostate): > 100 µM
- TGI (RPMI-8226 leukemia): 85.9 µM
- TGI (COLO 205 colon): > 100 µM
- TGI (MOLT-4 leukemia): > 100 µM
- TGI (NCI-H460 lung): 89.7 µM

SMILES: Cc1cc2c3ccccc3n3c2c2c1OC1(C)CCC(C2C1)C3(C)C (configuration not stated)
- TGI (M14 melanoma): > 25 µM
- TGI (OVCAR-5 ovarian): > 25 µM
- TGI (RPMI-8226 leukemia): > 25 µM
- TGI (COLO 205 colon): > 25 µM
- TGI (MOLT-4 leukemia): > 25 µM
- TGI (NCI-H460 lung): > 25 µM

SMILES: COc1ccc(N2C(=O)[C@@H]3[C@@H]4CC(C)CC[C@@H]4c4c([nH]c5ccccc45)[C@@H]3C2=O)cc1 (some centres not stated)
- TGI (M14 melanoma): > 74.9 µM
- TGI (SNB-75 CNS): 12.4 µM
- TGI (OVCAR-5 ovarian): > 100 µM
- TGI (COLO 205 colon): > 55.1 µM
- TGI (EKVX NSCLC): > 100 µM
- TGI (MOLT-4 leukemia): 61.3 µM
- TGI (NCI-H460 lung): 59.3 µM

SMILES: Cc1ccc(-c2ccc3c(c2)Sc2ccccc2O3)n1C
- TGI (M14 melanoma): > 65.4 µM
- TGI (OVCAR-5 ovarian): > 52.9 µM
- TGI (DU-145 prostate): > 41.5 µM
- TGI (RPMI-8226 leukemia): 0.706 µM
- TGI (COLO 205 colon): 2.12 µM
- TGI (EKVX NSCLC): > 88.3 µM
- TGI (MOLT-4 leukemia): > 67.8 µM
- TGI (NCI-H460 lung): > 36.5 µM

SMILES: COC(=O)CC(=O)OC1C[C@@H]2CCC3C(C)(C)CCC[C@]3(C)C23CC[C@@]1(C)C3 (some centres not stated)
- TGI (M14 melanoma): 33.7 µM
- TGI (SNB-75 CNS): 51.2 µM
- TGI (OVCAR-5 ovarian): 29.6 µM
- TGI (RPMI-8226 leukemia): > 100 µM
- TGI (COLO 205 colon): 33.9 µM
- TGI (MOLT-4 leukemia): > 100 µM
- TGI (NCI-H460 lung): 37.5 µM
